From patent publication US9452154B2, “Methods for treating HCV” (Gilead Sciences, Inc., priority 2010, dated 2016)
Several values for one entry are separate records, joined by “and”; a condition that tells them apart may be missing. Equal entries are not always repeated. Where two headings read alike, the source gives them in different places. Marks after values point to notes of the source that are not given here.

Tests used:
HCV genotype 1a replicon [1] = assay: Biological Example 3: HCV genotype 1a replicon assay, EC50; assay type: cell-based; conditions: IFN-α in Units (U) per milliliter (mL)
Protocol: The HCV genotype 1a replicon cell line used in this study was described previously. The cells were grown in cell culture medium containing Dulbecco's Modified Eagle Medium (DMEM) with GlutaMAX (Gibco, Carlsbad, Calif., Cat#10569-044), supplemented with 10% FBS (HyClone, Logan, Utah, Cat#SH30071.03), 100 Units/mL Penicillin, 100 μg/mL Streptomycin (Gibco, Carlsbad, Calif., Cat#15140-122), and 0.1 mM non-essential amino acids (Gibco, Carlsbad, Calif., Cat#11140-050). Replicon cells were maintained in 0.5 mg/mL Geneticin (Invitrogen, Carlsbad, Calif., Cat#10131-035) to prevent the loss of HCV replicon. The cells were passaged every 3-4 days before reaching confluency.
(§1) [formula] where XC is the fluorescence signal from the compound-treated well; MB is the average fluorescence signal from puromycin-treated wells; MD is the average fluorescence signal from DMSO-treated wells. The anti-HCV replication activity was determined by the luminescence signal generated from the reporter renilla luciferase of the HCV replicon. The percent inhibition on HCV replicon was calculated using equation 1, where XC is the luminescence signal from compound-treated well; MB is average luminescence signal from the ITMN-191-treated wells; MD is the average luminescence signal from DMSO-treated wells.
(§2) Both CC50 and EC50 values were obtained using Pipeline Pilot 5.0 software package (Accelrys, San Diego, Calif.) by nonlinear regression fitting of experimental data to equation 2: […]

[2] = tested on: GT1b and GT1a mutant replicons; assay: Biological Example 8: summary of cross resistance of mutant replicons; assay type: cell-based, HCV
Protocol: (§3) GT1b and GT1a replicons carrying Renilla Luciferase reporter were used to generate the mutant replicons. The mutations were introduced into the replicon construct by site-directed mutagenesis and confirmed by sequencing. Mutant replicon RNAs were generated from DNA by in vitro transcription and transfected into Huh-7 Lunet or C1 cells
(§4) Compounds were serially diluted 1:3 in 100% DMSO (Sigma). These serial dilutions were added to the cells at a 1:200 dilution to achieve a final concentration of 0.5% DMSO in a total volume of 200 μL. […] EC50 values were calculated using Prism.
(§5) For comparison, a fold change of 0-3 is considered “sensitive”, a fold change of 3-10 is considered “low”, a fold change of 10-50 is considered “medium” and a fold change of greater than […] is considered “high”.

HCV genotype 1a replicon [3] = assay: Biological Example 3: antiviral combination studies with Compound 4 (MacSynergy II); conditions: in combination with Compound 4
[4] = tested on: Huh-7 cells carrying a HCV genotype 1a replicon; assay: Biological Example 3: cytotoxicity (calcein AM), CC50; assay type: cell-based; conditions: HCV genotype 1a replicon cells; IFN-α in Units (U) per milliliter (mL)
Protocol: The HCV replicon assay was a multiplex assay which can assess both cytotoxicity and anti-replicon activity from the same well. The CC50 assay was performed first.
The cytotoxicity effect was determined by calcein AM conversion to fluorescent product. The percent cytotoxicity was calculated by equation 1:
as §1, §2

[5] = tested on: Huh-7 cells carrying a HCV genotype 1a replicon; assay: Biological Example 3: cytotoxicity in combination studies (MacSynergy II); conditions: in combination with Compound 4
[6] = tested on: NS3 GT1b mutant replicons; assay type: cell-based, HCV
Protocol: as §3, §4, §5

[7] = tested on: NS3 GT1a mutant replicons; assay type: cell-based, HCV
Protocol: as §3, §4, §5

HCV 1b replicon system = assay: Biological Example 5: antiviral combination studies with Compound 6 (MacSynergy II); assay type: cell-based; conditions: in combination with Compound 6

IFN-α [reference compound] was tested, and the EC50 (HCV genotype 1a replicon [1]) was 1.4 ± 0.3^b U/mL, the susceptibility of mutants ([2]; all single NS3 PI-resistant mutants) was “full susceptibility” and the susceptibility of mutants ([2]; triple class mutants that confer resistance to PI, NS5A and Compound 1) was “susceptible”. For the same substance, the “Antagonism Volume” value (HCV genotype 1a replicon [3]) was 0 ± 0 nM^2%, the Interaction (HCV genotype 1a replicon [3]) was “Additivity (Additivity: ≦25 and >−25 nM^2%)” and the “Synergy Volume” value (HCV genotype 1a replicon [3]) was 12 ± 6 nM^2%. The CC50 [4] was >50^b U/mL, the “Antagonism Volume (cytotoxicity)” value [5] was −7 ± 13 nM^2% and the “Interaction (cytotoxicity)” value [5] was “Additivity (Additivity: ≦25 and >−25 nM^2%)”. For the same substance, the “Synergy Volume (cytotoxicity)” value [5] was 8 ± 12 nM^2%, the “fold change in EC50 vs wild-type GT1b” value ([6]; mutant A156D) was 0.6 fold and the “fold change in EC50 vs wild-type GT1b” value ([6]; mutant A156G) was 1.1 fold. The “fold change in EC50 vs wild-type GT1b” value ([6]; mutant A156T) was 0.8 fold, the “fold change in EC50 vs wild-type GT1b” value ([6]; mutant A156V) was 0.9 fold and the “fold change in EC50 vs wild-type GT1b” value ([6]; mutant D168A) was 0.9 fold. The “fold change in EC50 vs wild-type GT1b” value ([6]; mutant D168E) was 0.9 fold, the “fold change in EC50 vs wild-type GT1b” value ([6]; mutant D168E + L31V + Y448H) was 0.7 fold and the “fold change in EC50 vs wild-type GT1b” value ([6]; mutant D168E + Y93H + Y448H) was 0.4 fold. For the same substance, the “fold change in EC50 vs wild-type GT1b” value ([6]; mutant D168G) was 0.6 fold, the “fold change in EC50 vs wild-type GT1b” value ([6]; mutant D168H) was 0.8 fold and the “fold change in EC50 vs wild-type GT1b” value ([6]; mutant D168N) was 1.0 fold. For the same substance, the “fold change in EC50 vs wild-type GT1b” value ([6]; mutant D168T) was 0.9 fold, the “fold change in EC50 vs wild-type GT1b” value ([6]; mutant D168V) was 1.5 fold and the “fold change in EC50 vs wild-type GT1b” value ([6]; mutant D168V + L31V + Y448H) was 0.5 fold. For the same substance, the “fold change in EC50 vs wild-type GT1b” value ([6]; mutant D168V + Y93H + Y448H) was 0.6 fold, the “fold change in EC50 vs wild-type GT1b” value ([6]; mutant D168Y) was 1.3 fold and the “fold change in EC50 vs wild-type GT1b” value ([6]; mutant L31V + D168E) was 1.3 fold. The “fold change in EC50 vs wild-type GT1b” value ([6]; mutant L31V + D168V) was 1.2 fold, the “fold change in EC50 vs wild-type GT1b” value ([6]; mutant R155C) was 0.7 fold and the “fold change in EC50 vs wild-type GT1b” value ([6]; mutant R155G) was 1.1 fold. The “fold change in EC50 vs wild-type GT1b” value ([6]; mutant R155K) was 1.5 fold, the “fold change in EC50 vs wild-type GT1b” value ([6]; mutant R155L) was 1.1 fold and the “fold change in EC50 vs wild-type GT1b” value ([6]; mutant R155Q) was 0.6 fold. For the same substance, the “fold change in EC50 vs wild-type GT1b” value ([6]; mutant R155W) was 0.5 fold, the “fold change in EC50 vs wild-type GT1b” value ([6]; mutant Y93H + D168E) was 1.1 fold and the “fold change in EC50 vs wild-type GT1b” value ([6]; mutant Y93H + D168V) was 0.7 fold. For the same substance, the “fold change in EC50 vs wild-type GT1a” value ([7]; mutant A156T) was 0.1 fold, the “fold change in EC50 vs wild-type GT1a” value ([7]; mutant D168A) was 1.4 fold and the “fold change in EC50 vs wild-type GT1a” value ([7]; mutant D168E) was 2.1 fold. For the same substance, the “fold change in EC50 vs wild-type GT1a” value ([7]; mutant D168G) was 0.8 fold, the “fold change in EC50 vs wild-type GT1a” value ([7]; mutant D168H) was 0.9 fold and the “fold change in EC50 vs wild-type GT1a” value ([7]; mutant D168N) was 1.1 fold. The “fold change in EC50 vs wild-type GT1a” value ([7]; mutant D168V) was 1.0 fold, the “fold change in EC50 vs wild-type GT1a” value ([7]; mutant D168Y) was 1.2 fold and the “fold change in EC50 vs wild-type GT1a” value ([7]; mutant R155I) was 0.6 fold. The “fold change in EC50 vs wild-type GT1a” value ([7]; mutant R155K) was 0.7 fold, the “fold change in EC50 vs wild-type GT1a” value ([7]; mutant R155K + L31M) was 0.2 fold and the “fold change in EC50 vs wild-type GT1a” value ([7]; mutant R155K + M28T) was 1.1 fold. For the same substance, the “fold change in EC50 vs wild-type GT1a” value ([7]; mutant R155K + Q30H + Y448H) was 1.9 fold, the “fold change in EC50 vs wild-type GT1a” value ([7]; mutant R155K + Q30R) was 1.6 fold and the “fold change in EC50 vs wild-type GT1a” value ([7]; mutant R155K + Y93H) was 0.3 fold. For the same substance, the “fold change in EC50 vs wild-type GT1a” value ([7]; mutant R155K + Y488H (second line, r26)) was 0.7 fold, the “fold change in EC50 vs wild-type GT1a” value ([7]; mutant R155M) was 0.3 fold and the “fold change in EC50 vs wild-type GT1a” value ([7]; mutant R155S) was 0.1 fold. For the same substance, the “fold change in EC50 vs wild-type GT1a” value ([7]; mutant R155T) was 0.2 fold, the “fold change in EC50 vs wild-type GT1a” value ([7]; mutant R155W) was 0.6 fold and the “fold change in EC50 vs wild-type GT1a” value ([7]; mutant R155k + Q30H) was 1.4 fold. The “Antagonism Volume” value (HCV 1b replicon system) was 0.0 ± 0.0 nM^2, the Interaction (HCV 1b replicon system) was “Minor Synergy” and the “Synergy Volume” value (HCV 1b replicon system) was 32 nM^2 and 32 ± 1.4 nM^2.
